The source of these data is EP0353047B1, “Use of imidazopyrazole derivatives as analgesics and anti-inflammatory agents” (Sankyo Company Limited, priority 1988, dated 1990).

Structures are written as SMILES. Marks after values point to notes of the source that are not given here.

The test system of data set [1] is inflammation induced by anti-rat IgG rabbit serum. Kind of data set: Anti-inflammatory effect (reversed passive alusas reaction, Evans blue extraction). Type of data set: in vivo, rats of the Sprague-Dawley strain. To be noted: oral; for ED50: ID₅₀, Sprague-Dawley rats. The protocol:
The test animals were rats of the Sprague-Dawley strain, which had first been fasted for 17 hours. The hair was trimmed from their dorsal portions by means of a hair clipper, and 0.1 ml/site of anti-rat IgG rabbit serum was injected intracutaneously at the trimmed part to induce inflammation. Except in the case of the control animals, to which no anti-inflammatory drug was administered, the test drug was administered orally immediately before inflammation was induced. Except where otherwise noted, the dose of test compound was 50 mg/kg. Two hours after induction of inflammation, a 1% by volume solution of Evans blue in physiological saline was injected intravenously into the tail of each rat in an amount of 1 ml per each animal. 30 minutes after this injection, the rats were sacrificed with carbon dioxide and their skins were peeled off to extract the chromogen of the blue spots. In more detail, the skins were cut into small pieces and extracted with 5 ml of an extraction solvent at room temperature for 2 days. The supernatant obtained by centrifugation was then measured spectrophotometrically at an absorption wavelength of 605 nm. The percent inhibition of inflammation of the group of rats to which the test drug was administered was determined relative to the control group.

Data set [2] relates to rats of the Wistar strain. Put plainly: Analgesic effect (Randall-Selitto method). Type of data set: in vivo. To be noted: oral; for ED50 / responders at 50 mg/kg: Rattus norvegicus; for ED50: ED₅₀, Wistar rats; for responders at 50 mg/kg / Analgesic effect (Randall-Selitto): fraction of animals; for Analgesic effect (Randall-Selitto): dose 25 mg/kg (*). The protocol:
These tests were conducted according to the Randall-Selitto method using rats of the Wistar strain [L.O. Randall, J.J. Selitto: Arch. int. Pharmacodyn. 111, 409 (1957)]. Except where otherwise noted, the dose of test compound was 50 mg/kg.

For data set [3], the system named is gastric acid secretions. Put plainly: Anti-ulcer activity: suppression of gastric acid secretions (Shay method). Type of data set: in vivo, rats. Particulars: gastric acid secretion.
The subject of data set [4] is carrageenan-induced edema. Put plainly: Anti-inflammatory effect (carrageenan edema method). Type of data set: in vivo, rats of the Wistar strain. To be noted: Rattus norvegicus, percent inhibition of carrageenan-induced edema, oral. The protocol: The percent inhibition against carrageenan-induced edema in rats of the Wistar strain, using the conventional method of C.A. Winter, E.A. Risley, G.W. Nuss [J. Pharmacol., Exp. Therap., 141, 369 (1963)]. Except where otherwise noted, the dose of test compound was 50 mg/kg.
In general terms: The carrageenan paw model is a standard test of acute inflammation.

Data set [5] has as its system male mice of the ddy strain. Put plainly: Acute toxicity. Format: in vivo. Particulars: fraction of animals; dose 300 mg/kg oral in 0.5% carboxymethyl cellulose, observed for 7 days. The protocol:
(§1) The test animals employed were male mice of the ddy strain (age: 5 weeks). […] The dose of test compound was 300 mg/kg.

Data set [6] concerns carrageenan-induced edema. Kind of data set: Anti-inflammatory effect (carrageenan edema method). Type of data set: in vivo, rats of the Wistar strain. To be noted: Rattus norvegicus; ID₅₀, oral, Wistar rats.
The target in data set [7] is T1, 5-lipoxygenase (Cavia porcellus, UniProt A0A286X958).
T1 construct: The supernatant was isolated as an enzyme fraction; from tissue; host or cells: Casein-elicited peritoneal polymorphonuclear leukocytes of male Hartley guinea pigs; sonicated, 10,000 G supernatant
T1 sequence (A0A286X958 1-674): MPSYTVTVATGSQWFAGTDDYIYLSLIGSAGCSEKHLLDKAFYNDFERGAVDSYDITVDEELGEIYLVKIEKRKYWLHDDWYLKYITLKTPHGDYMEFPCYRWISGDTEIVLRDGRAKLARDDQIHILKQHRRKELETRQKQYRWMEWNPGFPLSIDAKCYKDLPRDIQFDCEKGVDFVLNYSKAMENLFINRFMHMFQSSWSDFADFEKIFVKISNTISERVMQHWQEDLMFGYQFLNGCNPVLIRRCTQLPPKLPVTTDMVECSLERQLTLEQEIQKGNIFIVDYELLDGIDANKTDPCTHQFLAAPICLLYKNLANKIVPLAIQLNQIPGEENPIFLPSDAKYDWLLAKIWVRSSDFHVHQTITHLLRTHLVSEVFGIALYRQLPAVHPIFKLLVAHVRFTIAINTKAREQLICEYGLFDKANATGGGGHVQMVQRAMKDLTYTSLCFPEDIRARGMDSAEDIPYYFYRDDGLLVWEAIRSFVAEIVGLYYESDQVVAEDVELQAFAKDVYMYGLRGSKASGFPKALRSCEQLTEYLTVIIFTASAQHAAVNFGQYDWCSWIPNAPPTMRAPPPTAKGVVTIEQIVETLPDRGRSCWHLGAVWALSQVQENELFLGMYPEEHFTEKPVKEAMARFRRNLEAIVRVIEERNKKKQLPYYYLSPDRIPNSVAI
Kind of data set: 5-Lipoxygenase inhibitory activity (5-HITE production by polymorphonuclear leukocyte enzyme fraction). Type of data set: biochemical, male guinea pigs of the Hartley strain. Particulars: inhibition of production of 5-HITE from [14C]-arachidonic acid; 30°C, 30 minutes, pH 7.4; read-out: IC₅₀ (converted). The protocol: The preparation of polymorphonuclear leukocytes was carried out by the method of Sbarra et al [Sbarra A.J. and Karnovsky, M. L.; J. Biol. Chem., 234, 1355 - 1362 (1959)]. Specifically, a 2% w/v aqueous casein solution was administered intraperitoneally to male guinea pigs of the Hartley strain, each weighing about 400 - 500 g. The polymorphonuclear leukocytes were harvested from the peritoneal exudate 14 - 16 hours after the administration. The preparation of enzyme was carried out by the method of Yoshimoto et al [Yoshimoto, T., Furakawa, M., Yamamoto, S., Horie, T. and Watanabe-Kohno, S.; Biochem. Biophys. Commun., 116, 612 - 618 (1983)]. The harvested polymorphonuclear leukocytes were suspended in a 50 mM phosphate buffer solution (pH = 7.4) containing 10% ethylene glycol and 1mM EDTA at a density of 1 x 10⁸ cells/ml. The suspension was subjected to ultrasound twice, each time for 30 seconds at 20 KHz, and was then centrifuged for 10 minutes at 10,000 G. The supernatant was isolated as an enzyme fraction, which was stored at -80°C. The enzyme assay was carried out by a modification of Ochi's method [Ochi, K., Yoshimoto, T., Yamamoto., S., Taniguchi, K. and Miyamoto, T.; J. Biol. Chem., 258, 5754-5758 (1983)]. Specifically, 2 mM CaCℓ₂, 1 mM glutathione, 2 mM ATP (adenosine-5′-triphosphate), 16 µM [¹⁴C]-arachidonic acid (0.16 µCi, dissolved in 5 µl ethanol), the test compound (dissolved in 4 µl DMSO) and the enzyme solution (containing 200 µg of protein) were made up to a final volume of 200 µl in a 50 mM potassium phosphate buffer solution (pH = 7.4). The test compound and the enzyme were preincubated at 30°C for 5 minutes. After the addition of the arachidonic acid, the mixture was incubated at 30°C for 30 minutes. The reaction was stopped by the addition of 50µl of 0.2N citric acid. The reaction mixture was then extracted with ethyl acetate and the extract was concentrated under a stream of nitrogen. The concentrate was subjected to thin layer chromatography and eluted with a 85 : 15 : 0.1 by volume mixture of diethyl ether, petroleum ether and acetic acid. The 5-hydroxyicosatetraenoic acid (5-HITE) fraction of the plate was identified with a radioactive scanner and the radioactivity was measured. The IC₅₀ (µg/ml) was calculated against the inhibitory rate of the production of 5-HITE of a control group, to which a test compound was not administered.

Data set [8] in a line: Acute toxicity. Type of data set: in vivo. Particulars: mouse, in vivo; fraction of animals; dose 300 mg/kg oral in 0.5% carboxymethyl cellulose, observed for 7 days. The protocol: as §1
Where [9] appears, read: 2.5 h, percent inhibition of inflammation relative to control group.

Turning to `Cc1c(-c2ccccc2)nn2cc[nH]c12` [Example 4, 7-methyl-6-phenyl-1H-imidazo[1,2-b]pyrazole], the inhibition in vivo at 50 mg/kg is 60.5% in data set [1] (setting [9]) and 64.9% in data set [4]. The ED50 in data set [1] was found to be 26.7 mg/kg; in data set [2], 2.4 mg/kg; in data set [6], 34.1 mg/kg. The compound also had a responders at 50 mg/kg in data set [2] of 100%. The “Suppression rate (%)” value amounted to 67% in data set [3] (dosage 10 mg/kg i.d.) and 100% in data set [3] (dosage 30 mg/kg i.d.). Besides, the “Toxicity (mouse)” value in data set [5] is 0/5.
In the case of `CCc1c(-c2ccccc2)nn2cc[nH]c12` [Example 10], the inhibition in vivo at 50 mg/kg in data set [1] (setting [9]) came to 56.3%; in data set [4], 51.3%. In addition, the responders at 50 mg/kg in data set [2] is 100%. For the same compound, the IC50 in data set [7] is 5.21 µM. Further, the “Toxicity (mouse)” value in data set [5] is 0/3.
On to `CC(C)c1c(-c2ccccc2)nn2cc[nH]c12` [Example 11], for which the IC50 in data set [7] was 8.88 µM.
`CCCCc1c(-c2ccccc2)nn2cc[nH]c12` [Example 12]: in data set [7], the IC50 was 3.93 µM.
Regarding `c1csc(-c2cc3[nH]ccn3n2)c1` [Example 20, 6-(2-Thienyl)-1H-imidazo[1,2-b]pyrazole], the inhibition in vivo at 50 mg/kg is 79.6% in data set [1] (setting [9]) and 89.3% in data set [4]. In addition, the figures for the 50% effective dose (ED50) in data set [1], in data set [2] and in data set [6] were 7 mg/kg, 8 mg/kg and 17.1 mg/kg, respectively. Also, in data set [2], the responders at 50 mg/kg is 100%. Also, the figures for the “Suppression rate (%)” value in data set [3] (dosage 10 mg/kg i.d.) and in data set [3] (dosage 30 mg/kg i.d.) were 84% and 93%, respectively. Moreover, the “Toxicity (mouse)” value in data set [5] is reported as 0/3.
Regarding `Cc1nn2cc[nH]c2c1-c1ccccc1` [Example 30, 6-methyl-7-phenyl-1H-imidazo[1,2-b]pyrazole], in data set [2], the ED50 came out at 5.9 mg/kg and the “Analgesic effect (Randall-Selitto)” value was 5/5*. Also, the IC50 in data set [7] was 2.53 µM. The inhibition in vivo at 25 mg/kg in data set [4] was 50%. Further, in data set [5], the “Toxicity (mouse)” value is 0/3. This compound displayed an ED50 in data set [6] of 25 mg/kg.
For `Cc1ccc(-c2cnn3cc[nH]c23)cc1` [Example 35, 7-(p-methylphenyl)-1H-imidazo[1,2-b]pyrazole], the inhibition in vivo at 25 mg/kg in data set [1] (2.5 h, percent inhibition of inflammation relative to control group, dose 25 mg/kg (*)) is 69.9%; in data set [4], 56.4%. Besides, the “Analgesic effect (Randall-Selitto)” value in data set [2] is 5/5*. The mortality at 168 h in data set [8] worked out at 30%.
`CCCCCCCCCc1c(-c2ccccc2)nn2cc[nH]c12` [Example 41]: the IC50 in data set [7] was 2.13 µM.

A word on the inhibition in vivo: it is how much of the control response was suppressed. Low values mean little suppression, high ones strong suppression. In general, ED50 refers to the dose at which the effect has come halfway, by size or by number of responders. Higher therefore signals a need for a large dose. By mortality is commonly meant the percentage killed. A higher mortality goes with fewer survivors.
